According to ChEMBL document CHEMBL3817725, “Design, synthesis, and biological evaluation of a novel series of peripheral-selective noradrenaline reuptake inhibitors - Part 3” (Bioorg Med Chem, 2016):

What was measured:
[1] = biological target: Sodium-dependent serotonin transporter (Homo sapiens, UniProt P31645); experiment: Inhibition of human SERT expressed in CHO cells assessed as [3H]-5-hydroxytryptamine reuptake incubated for 20 mins measured after 30 mins by topcount method; format: cell-based
[2] = biological target: Sodium-dependent noradrenaline transporter (Homo sapiens, UniProt P23975); experiment: Inhibition of human NET expressed in CHO cells assessed as [3H]-Norepinephrine reuptake incubated for 45 mins measured after 30 mins by topcount method; format: cell-based
[3] = biological target: Sodium-dependent dopamine transporter (Homo sapiens, UniProt Q01959); experiment: Inhibition of human DAT expressed in CHO cells assessed as [3H]-dopamine reuptake incubated for 60 mins measured after 30 mins by topcount method; format: cell-based
[4] = tested on: MDR1; experiment: Efflux ratio of apparent permeability from basolateral to apical side over apical to basolateral side in pig LLC-PK1 cells expressing human MDR1 at 10 umol/l after 2 hrs by LC/MS/MS analysis; format: ADME, cell-based, Sus scrofa
[5] = species: Homo sapiens; experiment: Selectivity ratio of IC50 for human SERT to IC50 for human NET
[6] = species: Homo sapiens; experiment: Selectivity ratio of IC50 for human DAT to IC50 for human NET
[7] = Dissociation constant, pKa of the compound; format: physicochemical
[8] = Cmax in Crl:CD(SD)(IGS) rat at 1 mg/kg, po administered via cassette dosing by LC/MS/MS analysis; format: ADME, organism-based; parameters: dose 1 mg/kg, route oral; conditions: in vivo
[9] = Mean residence time in Crl:CD(SD)(IGS) rat at 1 mg/kg, po administered via cassette dosing by LC/MS/MS analysis; format: ADME, organism-based; conditions: in vivo
[10] = tested on: Rattus norvegicus; experiment: Ex vivo occupancy at NET in Sprague-Dawley rat brain cortex assessed as inhibition of [3H]-nisoxetine binding at 3 mg/kg, iv measured after 1 hr by scintillation counting method; format: functional
[11] = AUC in Crl:CD(SD)(IGS) rat at 1 mg/kg, po administered via cassette dosing by LC/MS/MS analysis; format: ADME, organism-based; conditions: in vivo
[12] = Oral bioavailability in Crl:CD(SD)(IGS) rat at 1 mg/kg administered via cassette dosing by LC/MS/MS analysis; format: ADME, organism-based; conditions: in vivo
[13] = tested on: Rattus norvegicus; experiment: Increase in urethral resistance in po dosed rat assessed as increase in leak point pressure after 15 mins to 4 hrs by Evans blue dye leakage based assay; format: functional, organism-based; conditions: Urethra

Sequence of Sodium-dependent dopamine transporter (Q01959 whole entry): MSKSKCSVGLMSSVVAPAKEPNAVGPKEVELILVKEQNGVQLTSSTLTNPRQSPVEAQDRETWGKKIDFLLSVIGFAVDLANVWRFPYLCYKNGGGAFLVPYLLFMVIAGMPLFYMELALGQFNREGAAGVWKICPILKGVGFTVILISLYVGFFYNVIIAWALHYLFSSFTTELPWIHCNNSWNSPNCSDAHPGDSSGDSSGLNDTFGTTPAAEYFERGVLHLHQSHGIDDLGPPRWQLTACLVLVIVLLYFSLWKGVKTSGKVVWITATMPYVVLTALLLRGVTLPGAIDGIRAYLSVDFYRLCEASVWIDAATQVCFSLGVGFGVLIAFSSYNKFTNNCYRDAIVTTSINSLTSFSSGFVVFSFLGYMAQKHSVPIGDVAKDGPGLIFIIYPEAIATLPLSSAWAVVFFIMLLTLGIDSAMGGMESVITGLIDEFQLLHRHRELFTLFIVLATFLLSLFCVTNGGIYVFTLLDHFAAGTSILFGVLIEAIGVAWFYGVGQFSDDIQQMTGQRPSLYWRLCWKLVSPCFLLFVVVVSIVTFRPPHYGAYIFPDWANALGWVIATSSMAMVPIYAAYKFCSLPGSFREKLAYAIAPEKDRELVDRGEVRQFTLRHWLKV
Sequence of Sodium-dependent serotonin transporter (P31645 whole entry): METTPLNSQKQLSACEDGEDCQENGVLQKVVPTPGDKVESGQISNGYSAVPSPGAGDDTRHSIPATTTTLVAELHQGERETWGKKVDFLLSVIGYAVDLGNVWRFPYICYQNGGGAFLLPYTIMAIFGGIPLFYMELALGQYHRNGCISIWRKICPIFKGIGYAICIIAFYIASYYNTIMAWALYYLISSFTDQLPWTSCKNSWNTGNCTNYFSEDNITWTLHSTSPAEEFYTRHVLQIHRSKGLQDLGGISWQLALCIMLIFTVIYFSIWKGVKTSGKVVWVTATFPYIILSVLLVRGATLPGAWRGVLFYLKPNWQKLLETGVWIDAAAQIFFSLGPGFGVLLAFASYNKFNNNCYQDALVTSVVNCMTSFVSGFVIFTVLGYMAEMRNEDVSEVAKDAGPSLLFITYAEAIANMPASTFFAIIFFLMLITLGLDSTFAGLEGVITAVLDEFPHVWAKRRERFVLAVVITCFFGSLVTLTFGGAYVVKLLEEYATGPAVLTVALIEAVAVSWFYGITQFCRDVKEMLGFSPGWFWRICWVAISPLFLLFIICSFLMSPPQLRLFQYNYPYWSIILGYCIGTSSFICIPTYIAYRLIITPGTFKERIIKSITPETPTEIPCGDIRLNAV
Sequence of Sodium-dependent noradrenaline transporter (P23975 whole entry): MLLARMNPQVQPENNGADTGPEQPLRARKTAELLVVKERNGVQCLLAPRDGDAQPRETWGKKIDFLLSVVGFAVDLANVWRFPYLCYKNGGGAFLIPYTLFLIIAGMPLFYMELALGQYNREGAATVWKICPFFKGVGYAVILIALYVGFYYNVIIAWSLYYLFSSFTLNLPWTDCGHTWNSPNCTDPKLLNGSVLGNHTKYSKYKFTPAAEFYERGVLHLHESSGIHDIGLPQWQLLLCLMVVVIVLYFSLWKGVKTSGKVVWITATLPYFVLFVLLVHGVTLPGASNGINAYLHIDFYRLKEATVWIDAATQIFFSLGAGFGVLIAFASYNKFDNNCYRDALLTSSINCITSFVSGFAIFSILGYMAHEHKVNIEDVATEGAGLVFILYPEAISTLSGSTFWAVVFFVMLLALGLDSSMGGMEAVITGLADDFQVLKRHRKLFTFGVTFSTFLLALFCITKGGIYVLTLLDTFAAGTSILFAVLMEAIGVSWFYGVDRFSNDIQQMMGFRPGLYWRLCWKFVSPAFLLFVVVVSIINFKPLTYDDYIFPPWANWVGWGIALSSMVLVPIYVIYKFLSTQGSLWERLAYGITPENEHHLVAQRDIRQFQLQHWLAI

Row | SMILES | IC50 [1] | IC50 [2] | IC50 [3] | efflux ratio at 2 h, 10 µM [4] | Ratio IC50 [5] | Ratio IC50 [6] | pKa [7] | Cmax [8] | MRT [9] | Occ [10] | AUC [11] | bioavailability [12] | Activity [13]
1 | COC(=O)c1cccn(C[C@@H]2CNCCO[C@H]2c2ccc(Cl)c(F)c2)c1=O.Cl | 54 nM | 0.21 nM | > 1000 nM | 7.8 |  |  |  |  |  |  |  |  | 
2 | O=C1NCCCN1C[C@@H]1CNCCO[C@H]1c1ccc(Cl)c(F)c1 | 12 nM | 0.08 nM | 66 nM |  | 150 | 820 |  |  |  |  |  |  | 
3 | O=C1CCCN1C[C@@H]1CNCCO[C@H]1c1ccc(Cl)c(F)c1 | 85 nM | 0.13 nM | 400 nM |  | 650 | 3100 |  |  |  |  |  |  | 
4 | Cl.O=c1[nH]c(-c2cccc(=O)n2C[C@@H]2CNCCO[C@H]2c2ccc(Cl)c(F)c2)no1 | > 1000 nM | 100 nM | > 1000 nM | 0.6 |  |  | 6.35 |  |  |  |  |  | 
5 | Cl.O=c1[nH]c(-c2cccn(C[C@@H]3CNCCO[C@H]3c3ccc(Cl)c(F)c3)c2=O)no1 | 380 nM | 1 nM | > 1000 nM | 1.9 |  |  | 5.45 | 17.2 ng/mL | 1.5 h | 28.4% | 38.9 ng·h/mL | 12% | 
6 | Cc1nnc(-c2cccn(C[C@@H]3CNCCO[C@H]3c3ccc(Cl)c(F)c3)c2=O)[nH]1.Cl | 67 nM | 0.64 nM | > 1000 nM | 6.8 |  |  | 9.68 |  |  |  |  |  | 
7 | CC(=O)NC[C@@H]1CNCCO[C@H]1c1ccc(Cl)c(F)c1 | > 1000 nM |  | > 1000 nM |  | > 440 | > 440 |  |  |  |  |  |  | 
8 | Cl.O=C(O)c1cccn(C[C@@H]2CNCCO[C@H]2c2ccc(Cl)c(F)c2)c1=O | > 1000 nM | 1.1 nM | > 1000 nM | 2.1 |  |  | 2.58 | 93.8 ng/mL | 1.9 h | 14% | 197 ng·h/mL | 41% | Dose-dependent effect
9 | O=c1cccnn1C[C@@H]1CNCCO[C@H]1c1ccc(Cl)c(F)c1 | 79 nM | 0.065 nM | 240 nM |  | 1200 | 3600 |  |  |  |  |  |  | 
10 | Cl.O=c1c(-c2nnn[nH]2)cccn1C[C@@H]1CNCCO[C@H]1c1ccc(Cl)c(F)c1 | 730 nM | 1.4 nM | > 1000 nM | 1.7 |  |  | 3.88 | 16.2 ng/mL | 2 h | 12% | 44 ng·h/mL | 8% | 
11 | O=C1CCCCN1C[C@@H]1CNCCO[C@H]1c1ccc(Cl)c(F)c1 | 27 nM | 0.1 nM | 130 nM |  | 270 | 1300 |  |  |  |  |  |  | 
12 | Cl.O=c1[nH]c(-c2ccn(C[C@@H]3CNCCO[C@H]3c3ccc(Cl)c(F)c3)c(=O)c2)no1 | 120 nM | 1.9 nM | > 1000 nM | > 0.8 |  |  | 5.89 |  |  |  |  |  | 
13 | Cl.O=c1ccccn1C[C@@H]1CNCCO[C@H]1c1ccc(Cl)c(F)c1 | 130 nM | 0.079 nM | > 1000 nM |  | 1700 | > 13000 |  | 47.9 ng/mL | 2.1 h | 83.4% | 107 ng·h/mL | 20% | 
14 | Cl.O=c1[nH]c(-c2ccc(=O)n(C[C@@H]3CNCCO[C@H]3c3ccc(Cl)c(F)c3)c2)no1 | > 1000 nM | 25 nM | > 1000 nM | 1.6 |  |  | 5.72 |  |  |  |  |  | 
